Test results taken from patent publication US8476197B2, “Aminopropenoates as fungicides” (priority 2009, dated 2013).
Marks after values point to notes of the source that are not given here.

Settings: pH 2.3

| Compound | Log P |
| --- | --- |
| COC(=O)C(C#N)=C(NC(C)c1nccs1)c1sccc1Cl (stereo not drawn) [Compound 18] | 2.61 |
| CNC(=O)C(C#N)=C(NC(C)C1CC1)c1cccnc1Cl (racemic) [Compound 908] | 2.2^[c]; 2.2^[b] |
| CC(C)C(C)NC(=C(C#N)C(=O)On1nnc2ccccc21)c1cccnc1Cl (stereo not drawn) [Compound 990] | 3.22 |
| CCOC(=O)C(C#N)=C(NC(C)C(C)C)c1cccnc1Cl (stereo not drawn) [Compound 984] | 3.22 |
| CCOC(=O)C(C#N)=C(NC(C)C(C)C)c1cccnc1-c1cccs1 (stereo not drawn) [Compound 1505] | 3.7^[c]; 3.7^[b] |
| CCOC(=O)C(C#N)=C(NC1CCSC1=O)c1cccnc1Cl (racemic) [Compound 44] | 2.42 |
| C=CCOC(=O)C(C#N)=C(Nc1ccccc1SC)c1cccnc1Cl [Compound 1602] | 3.32^[c]; 3.32^[b] |

Same assay, conditions: pH 2.7

| Compound | Log P |
| --- | --- |
| CCOC(=O)C(C#N)=C(NC(C)c1nccs1)c1ccsc1I (racemic) [Compound 158] | 3.08^[a] |
| COC(=O)C(C#N)=C(NC(C)c1ccc(F)cc1)c1cccnc1Cl (stereo not drawn) [Compound 397] | 2.89^[a] |
| CCOC(=O)C(C#N)=C(NC(C)CC)c1cn(C)nc1C(F)F (stereo not drawn) [Compound 833] | 2.82^[a] |
| CCOC(=O)C(C#N)=C(NC(C)c1nc(C2CC2)cs1)c1cccnc1Cl (stereo not drawn) [Compound 1416] | 3.37^[a] |
| CCOC(=O)C(C#N)=C(NC(C)c1nc(C)c(C)s1)c1c(C)nn(C)c1Cl (stereo not drawn) [Compound 94] | 3.12^[a] |
| CCOC(=O)C(C#N)=C(NC(C)CC)c1sccc1C(F)(F)F (stereo not drawn) [Compound 829] | 3.83^[a] |
| CCOC(=O)C(C#N)=C(Nc1ccccc1SC)c1ncc(C(F)(F)F)cc1Cl [Compound 350] | 4.26^[a] |
| CCOC(=O)C(C#N)=C(NC(C)C1CC1)c1ccncc1F (racemic) [Compound 904] | 2.8^[a] |
| CCOC(=O)C(C#N)=C(NCc1nc(C(F)(F)F)cs1)c1cn(C)nc1C(F)F [Compound 192] | 2.78^[a] |
| CCOC(=O)C(C#N)=C(NC(C)c1nc(C)c(C)s1)c1ccsc1Br (stereo not drawn) [Compound 112] | 3.7^[a] |
| CCOC(=O)C(C#N)=C(NCc1ncccc1Cl)c1cccnc1Cl [Compound 1413] | 2.77^[a] |
| CCCC(COC)NC(=C(C#N)C(=O)OCC)c1cccnc1Cl (stereo not drawn) [Compound 1375] | 3.31^[a] |
| CCOC(=O)C(C#N)=C(NC(C)c1nccs1)c1cnccc1C(F)(F)F (racemic) [Compound 256] | 2.7^[a] |
| CCOC(=O)C(C#N)=C(NC(C)C(C)C)c1cccnc1Cl (stereo not drawn) [Compound 984] | 3.33 |
| CCOC(=O)C(C#N)=C(NC1(CC)CC1)c1cccnc1Cl [Compound 1641] | 3.13^[a] |
| CCOC(=O)C(C#N)=C(NC(C)c1nccs1)c1cn(C)nc1C (stereo not drawn) [Compound 1212] | 2.11^[a] |
| COC(=O)C(C#N)=C(NC1CCC(C(F)(F)F)CC1)c1cccnc1Cl (stereo not drawn) [Compound 1075] | 3.04^[a] |
| CCOC(=O)C(C#N)=C(NC(C)c1nccs1)c1nsc(Cl)c1Cl (racemic) [Compound 55] | 3.29^[a] |
| C=CCOC(=O)C(C#N)=C(NC(C)c1nccs1)c1sccc1Br (stereo not drawn) [Compound 205] | 3.31^[a] |
| CCOC(=O)C(C#N)=C(Nc1ccc(OC)cc1)c1sc(C)nc1C(F)(F)F [Compound 492] | 3.44^[a] |

| Compound | Log P |
| --- | --- |
| CCOC(=O)C(C#N)=C(NC(C)COc1cccc(OC)c1)c1cccnc1Cl (stereo not drawn) [Compound 1173] | 3.58^[a] |
| CCOC(=O)C(C#N)=C(Nc1ccc2ncsc2c1)c1ccsc1Br [Compound 533] | 3.11^[a] |
| CCOC(=O)C(C#N)=C(NC(C)C(C)C)c1c(C)nn(C)c1Cl (stereo not drawn) [Compound 943] | 3.67^[a] |
| CCOC(=O)C(C#N)=C(NC(C)c1ccccn1)c1ccsc1Br (stereo not drawn) [Compound 116] | 3.1^[a] |
| CCOC(=O)C(C#N)=C(NC(C)c1nc(C)c(C)s1)c1ccsc1I (racemic) [Compound 157] | 3.75^[a] |
| CCOC(=O)C(C#N)=C(Nc1ccncc1C)c1cccnc1Cl [Compound 293] | 1.45^[a] |
| CCOC(=O)C(C#N)=C(NC(C)c1nccs1)c1ccnc(C)c1F (stereo not drawn) [Compound 1319] | 2.48^[a] |
| CCOC(=O)C(C#N)=C(NCc1nc2ccccc2s1)c1sccc1C(F)(F)F [Compound 176] | 3.67^[a] |
| CCOC(=O)C(C#N)=C(NC(C)C(N)=O)c1cnccc1C(F)(F)F (stereo not drawn) [Compound 727] | 1.8^[a] |
| COC(=O)C(C#N)=C(NC1(c2c(F)cccc2F)CC1)c1cccnc1Cl [Compound 380] | 2.8^[a] |
| CCOC(=O)C(C#N)=C(NC(C)C(=O)CC)c1cccnc1Cl (racemic) [Compound 1270] | 2.64^[a] |
| COC(=O)C(C#N)=C(NCc1ccccn1)c1cn(C)nc1C(F)F [Compound 58] | 1.63^[a] |
| CCOC(=O)C(C#N)=C(NC(CC(F)(F)F)c1ccccc1)c1cn(C)nc1C(F)F (stereo not drawn) [Compound 1428] | 3.37^[a] |
| CCOC(=O)C(C#N)=C(NC(C)c1cn2ccsc2n1)c1cccnc1Cl (stereo not drawn) [Compound 1529] | 2.35^[a] |
| COC(=O)C(C#N)=C(NC(C)C)c1cccnc1Cl [Compound 822] | 2.11^[a] |
| CCOC(=O)C(C#N)=C(NC(C)C1CC1)c1cn(C)nc1C(F)F (stereo not drawn) [Compound 882] | 2.88^[a] |
| CCOC(=O)C(C#N)=C(NC(C)C(C)C)c1cn(C)nc1C(Cl)Cl (stereo not drawn) [Compound 1562] | 3.46^[a] |
| CCOC(=O)C(C#N)=C(NC1(c2c(F)cccc2F)CC1)c1sc(Cl)nc1Cl [Compound 528] | 4.14^[a] |
| CCOC(=O)C(C#N)=C(NC(C)c1nccs1)c1cnn(C)c1C(F)F (stereo not drawn) [Compound 1302] | 2.46^[a] |
| CCOC(=O)C(C#N)=C(NC(C#N)Cc1ccccc1)c1cn(C)nc1C(F)F (stereo not drawn) [Compound 1221] | 2.98^[a] |

| Compound | Log P |
| --- | --- |
| CCOC(=O)C(C#N)=C(NC(C)Cc1c[nH]c2ccccc12)c1ccsc1I (racemic) [Compound 164] | 3.8^[a] |
| CCOC(=O)C(C#N)=C(Nc1ccc(SC)cc1)c1cn(C)nc1C(F)F [Compound 474] | 3.19^[a] |
| CCOC(=O)C(C#N)=C(NC(C)C(=O)NC)c1sc(C)nc1C(F)(F)F (stereo not drawn) [Compound 642] | 2.07^[a] |
| CCOC(=O)C(C#N)=C(NC(C(=O)NC)c1ccccc1)c1cn(C)nc1C(F)F (stereo not drawn) [Compound 1137] | 2.27^[a] |
| CCOC(=O)C(C#N)=C(NC(C)CSc1ccc(Cl)cc1)c1cn(C)nc1C(F)F (stereo not drawn) [Compound 1234] | 3.87^[a] |
| CCNC(=O)C(C#N)=C(NC(C)c1nccs1)c1cccnc1Cl (stereo not drawn) [Compound 328] | 2.07 |
| C=CCCCC(C=C)NC(=C(C#N)C(=O)OCC)c1conc1C (stereo not drawn) [Compound 1020] | 3.81^[a] |
| CCOC(=O)C(C#N)=C(NC(C)COC)c1sc(C)nc1C(F)(F)F (racemic) [Compound 678] | 3.11^[a] |
| CC(NC(=C(C#N)C(=O)N1CCOCC1)c1cn(C)nc1C(F)F)c1ccccn1 (stereo not drawn) [Compound 1328] | 1.63^[a] |
| CCNC(=O)C(C#N)=C(NC(C)C(C)C)c1ccnc(Cl)c1Cl (stereo not drawn) [Compound 1200] | 3.57^[a] |
| CCOC(=O)C(C#N)=C(NC(C)c1ccccn1)c1conc1C (stereo not drawn) [Compound 82] | 2.36^[a] |
| CCOC(=O)C(C#N)=C(NCc1ccccn1)c1sccc1C(F)(F)F [Compound 102] | 2.84^[a] |
| CCOC(=O)C(C#N)=C(NC(C)C(C)Sc1ccccc1)c1cn(C)nc1C(F)F (stereo not drawn) [Compound 737] | 3.87^[a] |
| CCOC(=O)C(C#N)=C(NC(C)COC)c1sccc1C(F)(F)F (racemic) [Compound 655] | 3.31^[a] |
| CCNC(=O)C(C#N)=C(NC(C)c1nccs1)c1ccnc(Br)c1Cl (stereo not drawn) [Compound 1305] | 2.62^[a] |
| CCOC(=O)C(C#N)=C(NC(C)c1ncc(C)s1)c1ccnc(Cl)c1Cl (racemic) [Compound 1389] | 3.33^[a] |
| CCOC(=O)C(C#N)=C(NC(C)C(C)C)c1ccnc(CC(C)C)c1Cl (stereo not drawn) [Compound 1402] | 4.81^[a] |
| COC(=O)C(C#N)=C(NC(C)c1nc(C)c(C)s1)c1sc(C)nc1C(F)(F)F (racemic) [Compound 131] | 3.46^[a] |
| CCOC(=O)C(C#N)=C(NC(C)C(C)C)c1cc(Cl)sc1Cl (stereo not drawn) [Compound 1580] | 4.68^[a] |
| C=Cc1nn(C)cc1C(NC(C(=O)OC)C(C)C)=C(C#N)C(=O)OCC (stereo not drawn) [Compound 719] | 2.94^[a] |

Same assay, conditions: pH 7.5

| Compound | Log P |
| --- | --- |
| COC(=O)C(C#N)=C(NC(C)c1nccs1)c1sccc1Cl (stereo not drawn) [Compound 18] | 2.59 |
| COC(=O)C(NC(=C(C#N)C(=O)OCC(F)(F)F)c1cccnc1Cl)C(C)C (stereo not drawn) [Compound 581] | 3.14 |
| CNC(=O)C(C#N)=C(NC(C)C1CC1)c1cccnc1Cl (racemic) [Compound 908] | 2.2^[c]; 2.2^[b] |
| C=CCOC(=O)C(C#N)=C(NC(C)c1nccs1)c1cccnc1Cl (stereo not drawn) [Compound 89] | 2.56 |
| CC(C)C(C)NC(=C(C#N)C(=O)On1nnc2ccccc21)c1cccnc1Cl (stereo not drawn) [Compound 990] | 3.21 |
| CCOC(=O)C(C#N)=C(NC(C)C(C)C)c1cccnc1Cl (stereo not drawn) [Compound 984] | 3.22 |
| COC(=O)C(C#N)=C(NC(C)C(C)(C)C)c1cccnc1Cl (mixture of isomers) [Compound 916] | 3.14 |
| CCOC(=O)C(C#N)=C(NC(C)C(C)C)c1cccnc1-c1cccs1 (stereo not drawn) [Compound 1505] | 3.7^[c]; 3.7^[b] |
| CSCC(C)NC(=C(C#N)C(=O)OCC(F)(F)F)c1cccnc1Cl (stereo not drawn) [Compound 585] | 2.98 |
| CCOC(=O)C(C#N)=C(NC1CCSC1=O)c1cccnc1Cl (racemic) [Compound 44] | 2.23 |
| CONC(=O)C(C#N)=C(NC(C)c1nccs1)c1ccc(Cl)nc1Cl (stereo not drawn) [Compound 1459] | 1.94 |
| CCNC(=O)C(C#N)=C(NC(C)c1nccs1)c1cccnc1Cl (stereo not drawn) [Compound 328] | 2.05 |
| C=CCOC(=O)C(C#N)=C(Nc1ccccc1SC)c1cccnc1Cl [Compound 1602] | 3.32^[c]; 3.32^[b] |
| CCOC(=O)C(C#N)=C(NC(C)CSCC)c1cccnc1Cl (stereo not drawn) [Compound 586] | 3.06 |
